Several values for one entry are separate records, joined by “and”; a condition that tells them apart may be missing. Identical values can stand only once.

One data set deals with A:T base pairs. The note with it: Justice et al. (1999); cited from earlier work.
Another data set deals with wild-type rats. Conditions: cited from earlier work.
Another data set has as its system wild-type males. In words: Survival of ENU treated wild-type males (previous studies). The note with it: unpublished data. In kind it is in vivo, rat. An excerpt:
(§1) The efficiency of ENU is dependent of the dose, reflected by a higher mutagenicity after three weekly administrations of low doses of the mutagen compared to a single high-dose injection (Justice et al. (2000) Mamm Genome 11, 484-8). Furthermore it has been shown that higher ENU concentrations increase the mutation frequency (Smits et al. (2004) Pharmacogenet Genomics 16, 159-69; Smits and Cuppen (2006) Trends Genet. 22, 232-40). To determine the optimal ENU concentration we performed an ENU dose-response experiment and determined the fertility of the founders. At 12 weeks of age msh6^-/- males were treated with 3 weekly doses of different concentrations of the mutagen. Fertility was determined after a full cycle of spermatogenesis (± 10 weeks) by breeding and/or histological analysis of the testes. At concentrations of 35, 30 and 25 mg/kg, respectively 1/8, 5/8 and 4/6 males were fertile (Table 5). Compared to earlier studies, where at 40 and 35 mg/kg ENU respectively 6/10 and 10/10 rats are fertile (Smits and Cuppen (2006) Trends Genet. 22, 232-40), this is a considerable decrease. It is known that MSH6 deficiency reduces lifespan in both rats (van Boxtel et al. (2007) submitted) and mice (Edelmann (1997) Cell 91, 467-77) as a result of tumor development. MSH6 deficiency increased ENU sensitivity not only in fertility, but also in survival. […]

The subject of a further data set is Control. Conditions: Control 3 x 40 mg/kg ENU, cited from earlier work.
Another data set relates to msh6^-/- males. In words: ENU dose-response experiment: fertility of treated founder males. In kind it is in vivo, rat. As to the method:
All experiments were approved by the Animal Care Committee of the Royal Dutch Academy of Science according to the Dutch legal ethical guidelines. Experiments were designed to minimize the number of required animals and their suffering. Male MSH6 knockout rats (Msh6^1Hubr) of 12 weeks of age were given three weekly intraperitoneal injections of 25, 30 and 35 mg/kg bodyweight ENU. Preparation of ENU (Isopac; Sigma) was done as decribed (for detailed description, see (Smits et al. (2006) Pharmacogenet Genomics 16, 159-69) After the treatment the injected males were monitored for fertility by breeding with one or two females. Pups from these early matings were counted, but not analyzed. Ten weeks after the last injection, fertile males of the highest-dosed fertile group were kept on a weekly breeding scheme with two females to produce F1 progeny for mutational analysis. Animals were housed under standard conditions in groups of two to three per cage per gender under controlled experimental conditions (12-h light/dark cycle, 21±1°C, 60% relative humidity, food and water ad libitum).
as §1, with “survival. Whereas untreated msh6^-/- rats show a median survival of 14 months, this is reduced in the ENU treated males to an average mean of 37 ± 3 weeks (∼ 8 months) and no male was alive after 50 weeks of age (Figure 5). This decrease in lifespan was due to the development of tumors, mainly lymphomas (data not shown).” for “survival.”

[1] abbreviates: 362 pups, 37,27 x 10^6 bases screened.

Take `CCN(N=O)C(N)=O` [ENU, N-ethyl-N-nitrosourea]: in the data set on A:T base pairs, the “A:T->C:G transversions” value was 5%, the “A:T->G:C transitions” value is 38%, the “A:T->T:A transversions” value is given as 44% and the “G:C ->A:T transitions” value is recorded as 8%. Moreover, in the data set with A:T base pairs, the “G:C->C:G transversions” value is reported as 3%, the “G:C->T:A transversions” value is given as 2%, the missense mutations result is recorded as “about 64%” and the nonsense mutations was roughly 10%. The splicing errors in the data set with A:T base pairs is listed as roughly 26%. The rats fertile in the data set on wild-type rats (35 mg/kg ENU, earlier studies (Smits and Cuppen 2006)) was 10/10. Further, in the data set on wild-type rats (Control 3 x 40 mg of ENU per kg bodyweight, 10 males injected), the “# Fertile males” value was 6/10 and 6. In the data set on wild-type males (35 mg/kg bodyweight ENU), the “survived till 1,5 years of age” value is 9 out of 10. For the same compound, the “survived till 1,5 years of age” value in the data set on wild-type males (40 mg/kg bodyweight ENU) is 10 out of 10. Further, in the data set on Control (setting [1]), the “# Mutations - nonsense” value was 0 and the “# Mutations - total” value was 30. Moreover, in the data set with Control, the “# Mutations - missense” value is 17, the “# Mutations - non-coding” value is 6 and the “# Mutations - silent” value is listed as 7. The “Mutation Frequencies” value in the data set on Control (highest ENU-induced mutation frequency in rats) is 8.05 x 10^-7. Moreover, the “# Fertile males” value in the data set with msh6^-/- males (MSH6^-/- 3 x 25 mg of ENU per kg bodyweight (three weekly injections), 6 males injected, testes histology and/or at least one litter 10 weeks after last injection) is 4/6 and 4. The “# Fertile males” value in the data set with msh6^-/- males (MSH6^-/- 3 x 30 mg of ENU per kg bodyweight (three weekly injections), 8 males injected) was 5/8 and 5. The “# Fertile males” value with msh6^-/- males (MSH6^-/- 3 x 35 mg of ENU per kg bodyweight (three weekly injections), 8 males injected) was 1/8 and 1. Further, the “# Fertile males” value in the data set with msh6^-/- males (MSH6^-/- Total of the three dose groups, 24 males injected as printed) came out at 10.
